# Data: ChEMBL document CHEMBL3112508, “IV. Discovery of CXCR3 antagonists substituted with heterocycles as amide surrogates: improved PK, hERG and metabolic profiles” (Bioorg Med Chem Lett, 2014)
# Key:
# [1] = molecular target: T1, C-X-C chemokine receptor type 3 (Homo sapiens, UniProt P49682); experiment: Binding affinity to human CXCR3 receptor
# T1 sequence (P49682 whole entry): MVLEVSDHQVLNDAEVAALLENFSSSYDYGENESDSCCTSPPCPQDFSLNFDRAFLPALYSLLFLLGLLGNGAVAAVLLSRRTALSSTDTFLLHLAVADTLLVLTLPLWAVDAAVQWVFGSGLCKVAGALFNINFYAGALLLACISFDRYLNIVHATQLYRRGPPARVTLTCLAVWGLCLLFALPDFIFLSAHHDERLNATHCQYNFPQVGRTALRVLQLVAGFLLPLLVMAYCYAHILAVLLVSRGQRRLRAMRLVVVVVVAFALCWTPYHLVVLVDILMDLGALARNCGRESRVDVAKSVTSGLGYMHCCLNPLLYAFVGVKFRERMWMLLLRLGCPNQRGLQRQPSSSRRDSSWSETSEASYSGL
# [2] = (§1) AUC in rat at 10 mg/kg, po; assay type: ADME, organism-based, Plasma; design: dose 10 mg/kg, route oral; details: plasma
# [3] = molecular target: Voltage-gated inwardly rectifying potassium channel KCNH2 (Homo sapiens, UniProt Q12809); experiment: Inhibition of human ERG channel by Rb efflux assay
# Rattus norvegicus [4] = experiment: as §1; assay type: ADME, organism-based, Plasma; design: dose 10 mg/kg, route oral; details: in vivo
# Rattus norvegicus [5] = experiment: AUC in rat at 10 mg/kg, po after 6 hrs; assay type: ADME, organism-based, Plasma; design: time < 6 hr, dose 10 mg/kg, route oral; details: in vivo
# Sequence of Voltage-gated inwardly rectifying potassium channel KCNH2 (Q12809 whole entry): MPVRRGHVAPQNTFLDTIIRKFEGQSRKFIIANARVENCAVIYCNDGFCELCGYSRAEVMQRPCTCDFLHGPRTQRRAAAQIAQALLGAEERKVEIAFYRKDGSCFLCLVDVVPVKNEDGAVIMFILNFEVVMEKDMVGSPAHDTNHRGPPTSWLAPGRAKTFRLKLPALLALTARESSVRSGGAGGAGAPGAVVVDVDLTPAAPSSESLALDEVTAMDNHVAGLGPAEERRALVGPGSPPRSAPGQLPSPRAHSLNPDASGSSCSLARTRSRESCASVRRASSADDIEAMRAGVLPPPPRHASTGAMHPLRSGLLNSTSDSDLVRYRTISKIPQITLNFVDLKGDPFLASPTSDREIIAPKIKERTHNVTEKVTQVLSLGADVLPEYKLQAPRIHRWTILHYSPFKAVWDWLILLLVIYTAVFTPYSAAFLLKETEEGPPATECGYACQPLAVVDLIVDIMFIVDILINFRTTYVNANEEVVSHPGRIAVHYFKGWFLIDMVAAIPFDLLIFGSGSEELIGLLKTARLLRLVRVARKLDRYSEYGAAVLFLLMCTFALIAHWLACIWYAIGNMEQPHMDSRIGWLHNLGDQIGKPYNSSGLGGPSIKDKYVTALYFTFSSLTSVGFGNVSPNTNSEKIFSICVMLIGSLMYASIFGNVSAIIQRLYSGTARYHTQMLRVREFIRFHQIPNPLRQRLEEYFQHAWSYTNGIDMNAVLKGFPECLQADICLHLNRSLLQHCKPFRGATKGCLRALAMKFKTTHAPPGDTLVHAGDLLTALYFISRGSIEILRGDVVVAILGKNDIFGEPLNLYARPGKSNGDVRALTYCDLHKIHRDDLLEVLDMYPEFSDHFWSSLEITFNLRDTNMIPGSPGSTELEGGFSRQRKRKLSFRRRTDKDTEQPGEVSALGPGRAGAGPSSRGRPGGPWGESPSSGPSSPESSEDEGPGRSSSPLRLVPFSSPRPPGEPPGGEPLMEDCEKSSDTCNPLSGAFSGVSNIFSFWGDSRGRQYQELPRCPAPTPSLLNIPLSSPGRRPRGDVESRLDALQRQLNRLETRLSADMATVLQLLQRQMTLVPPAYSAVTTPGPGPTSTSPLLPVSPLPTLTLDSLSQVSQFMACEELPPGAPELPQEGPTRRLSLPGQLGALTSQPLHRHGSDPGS
SMILES,IC50 [1] [nM],AUC [2] [µM·h],AUC (Rattus norvegicus [4]) [uM.hr/ml],AUC (Rattus norvegicus [5]) [uM.hr/ml],inhibition (INH) [3] [%]
CC[C@H]1CN(c2ncc(C#N)cc2Cl)CCN1C1CCN(Cc2ccc(Cl)cc2F)CC1,50.5,–,–,–,–
CCNc1nnc(-c2cnc(N3CCN(C4CCN(C(=O)c5ccc(Cl)nc5N)CC4)[C@@H](CC)C3)c(C)n2)o1,1.2,–,2.6,0.1,12
CC[C@H]1CN(c2ncc(-c3nnc[nH]3)nc2C)[C@H](C)CN1C1CCN(C(=O)c2ccc(Cl)cc2)CC1,33.8,–,26.5,4.9,4
CC[C@H]1CN(c2nc(N)c(-c3nnc(NCCO)o3)nc2Cl)CCN1C1CCN(C(=O)c2ccc(Cl)nc2N)CC1,3.9,–,0.1,–,0
CC[C@H]1CN(c2ncc(-c3nnc[nH]3)cc2Cl)CCN1C1CCN(Cc2ccc(Cl)cc2F)CC1,6.8,–,–,–,–
CCNc1nnc(-c2cnc(N3C[C@H](CC)N(C4CCN(C(=O)c5ccc(Cl)cc5)CC4)C[C@H]3C)c(C(F)(F)F)n2)o1,1.8,–,9.9,2.3,27
CC[C@H]1CN(c2nc(N)c(-c3nnc(NS(C)(=O)=O)o3)nc2Cl)CCN1C1CCN(C(=O)c2ccc(Cl)nc2N)CC1,2300,–,–,–,5
CCNc1nnc(-c2cnc(N3C[C@H](CC)N(C4CCN(C(=O)c5ccc(Cl)nc5N)CC4)C[C@H]3C)c(C)n2)o1,3.4,–,15.3,0.8,4
CCNc1nnc(-c2cnc(N3CCN(C4CCN(C(=O)c5ccc(Cl)nc5N)CC4)[C@@H](CC)C3)c(C3CC3)n2)o1,24.5,–,–,–,14
CCNc1nnc(-c2cnc(N3C[C@H](CC)N(C4CCN(C(=O)c5ccc(Cl)nc5N)CC4)C[C@H]3C)c(C(F)(F)F)n2)o1,3.6,–,30.2,5.1,22
CC[C@H]1CN(c2nc(N)c(-c3nnc(CO)o3)nc2Cl)CCN1C1CCN(C(=O)c2ccc(Cl)nc2N)CC1,2.2,–,2.5,–,16
CCNc1nnc(-c2cnc(N3CCN(C4CCN(C(=O)c5ccc(Cl)cc5)CC4)[C@@H](CC)C3)c(C)n2)o1,1.2,–,16.4,0.9,40
CC[C@H]1CN(c2ncc(-c3nnc(NC)o3)nc2C)[C@H](C)CN1C1CCN(C(=O)c2ccc(Cl)cc2)CC1,6.2,–,18,2.4,17
CC[C@H]1CN(c2nc(N)c(-c3nnc(C)o3)nc2Cl)CCN1C1CCN(Cc2ccc(Cl)cc2)CC1,0.4,–,1,–,–
CCNc1nnc(-c2cnc(N3CCN(C4CCN(C(=O)c5ccc(Cl)nc5N)CC4)[C@@H](CC)C3)c(C(F)(F)F)n2)o1,1.5,–,25.3,4.2,43

# Continued, in another order:
IC50 [1] [nM],AUC [2] [µM·h],AUC (Rattus norvegicus [4]) [uM.hr/ml],AUC (Rattus norvegicus [5]) [uM.hr/ml],SMILES,inhibition (INH) [3] [%]
1.4,1.8,–,–,CC[C@H]1CN(c2ncc(-c3nnco3)cc2Cl)CCN1C1CCN(Cc2ccc(Cl)cc2F)CC1,–
760,–,–,–,CC[C@H]1CN(c2ncc(-c3noc(=O)[nH]3)cc2Cl)CCN1C1CCN(Cc2ccc(Cl)cc2F)CC1,–
6,–,–,–,CC[C@H]1CN(c2nc(N)c(-c3nnc(C4CC4)o3)nc2Cl)CCN1C1CCN(C(=O)c2ccc(Cl)nc2N)CC1,72
–,–,5.1,–,CC[C@H]1CN(c2nc(N)c(C(N)=O)nc2Cl)CCN1C1CCN(Cc2ccc(Cl)cc2)CC1,> 90
1.6,–,7.3,0.8,CC[C@H]1CN(c2ncc(-c3ncc[nH]3)nc2C)[C@H](C)CN1C1CCN(C(=O)c2ccc(Cl)cc2)CC1,36
2,–,10.2,–,CC[C@H]1CN(c2nc(N)c(-c3nnc(C)o3)nc2Cl)CCN1C1CCN(C(=O)c2ccc(Cl)nc2N)CC1,26
1.3,–,–,–,CC[C@H]1CN(c2ncc(C3=NCCN3)cc2Cl)CCN1C1CCN(Cc2ccc(Cl)cc2F)CC1,–
23.6,–,–,–,CC[C@H]1CN(c2nc(N)c(-c3nnc(N(C)C)o3)nc2Cl)CCN1C1CCN(C(=O)c2ccc(Cl)nc2N)CC1,67
1.8,–,6.7,0.3,CC[C@H]1CN(c2ncc(-c3ncc[nH]3)nc2C)[C@H](C)CN1C1CCN(C(=O)c2ccc(Cl)nc2N)CC1,22
2.8,–,16.6,3.3,CCNc1nnc(-c2cnc(N3C[C@H](CC)N(C4CCN(C(=O)c5ccc(Cl)cc5)CC4)C[C@H]3C)c(C)n2)o1,25
4.2,–,3.9,–,CC[C@H]1CN(c2nc(N)c(-c3nnc(C)o3)nc2Cl)CCN1C1CCN(C(=O)c2ccc(Cl)cc2)CC1,85
0.8,–,40.4,1.4,CCNc1nnc(-c2cnc(N3CCN(C4CCN(C(=O)c5ccc(Cl)nc5N)CC4)[C@@H](CC)C3)c(Cl)n2)o1,14
286,–,–,–,CC[C@H]1CN(c2ncc(-c3ncon3)cc2Cl)CCN1C1CCN(Cc2ccc(Cl)cc2F)CC1,–
0.3,–,–,–,CC[C@H]1CN(c2ncc(-c3ncc[nH]3)cc2Cl)CCN1C1CCN(Cc2ccc(Cl)cc2F)CC1,–
1.3,–,0.3,–,CC[C@H]1CN(c2nc(N)c(-c3nnc(N)o3)nc2Cl)CCN1C1CCN(C(=O)c2ccc(Cl)nc2N)CC1,7
5.2,–,–,–,CC[C@H]1CN(c2nc(N)c(-c3nnco3)nc2Cl)CCN1C1CCN(Cc2ccc(Cl)cc2)CC1,–
1380,–,–,–,CC[C@H]1CN(c2ncc(-c3nnn[nH]3)cc2Cl)CCN1C1CCN(Cc2ccc(Cl)cc2F)CC1,–
1.6,–,5.5,–,CC[C@H]1CN(c2nc(N)c(-c3nnc(NC)o3)nc2Cl)CCN1C1CCN(C(=O)c2ccc(Cl)nc2N)CC1,39
1,–,16.6,–,CCNc1nnc(-c2nc(Cl)c(N3CCN(C4CCN(C(=O)c5ccc(Cl)nc5N)CC4)[C@@H](CC)C3)nc2N)o1,26
6.4,–,12.7,1,CC[C@H]1CN(c2ncc(-c3nnc(N)o3)nc2C)[C@H](C)CN1C1CCN(C(=O)c2ccc(Cl)cc2)CC1,0
3.8,–,–,–,CCNc1nnc(-c2cnc(N3CCN(C4CCN(C(=O)c5ccc(Cl)nc5N)CC4)[C@@H](CC)C3)c(CC)n2)o1,4
437,–,–,–,CCNc1nnc(-c2cnc(N3CCN(C4CCN(C(=O)c5ccc(Cl)nc5N)CC4)[C@@H](CC)C3)c(C(C)C)n2)o1,8
